ChEMBL document CHEMBL1201862, “PubChem BioAssay data set” (2004)
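Protocol summary: plate cells (96-well), add compound at 5 concentrations, incubate 48 h, interpolate endpoints linearly. GI50 = concentration required for 50% inhibition of growth.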 Calls of active or inactive are those of the source. Rule as the data show it: active = GI50 up to about 1.1 µM and inactive = higher.

Key:
Assay in all cases: growth of human tumour cells (NCI), 48 h
[1] = test system: 786-0
[2] = test system: EKVX
[3] = test system: HCC 2998
[4] = test system: HCT-15
[5] = test system: HL-60
[6] = test system: HT-29
[7] = test system: MCF7
[8] = test system: MDA-MB-435
[9] = test system: MDA-N
[10] = test system: MOLT-4
[11] = test system: NCI-H460
[12] = test system: NCI/ADR-RES
[13] = test system: OVCAR-3
[14] = test system: OVCAR-4
[15] = test system: RPMI-8226
[16] = test system: SK-OV-3
[17] = test system: SNB-19
[18] = test system: SR
[19] = test system: UACC-62

Row | SMILES | GI50 [1] | GI50 [2] | GI50 [3] | GI50 [4] | GI50 [5] | GI50 [6] | GI50 [7] | GI50 [8] | GI50 [9] | GI50 [10] | GI50 [11] | GI50 [12] | GI50 [13] | GI50 [14] | GI50 [15] | GI50 [16] | GI50 [17] | GI50 [18] | GI50 [19]
1 | COc1cccc(C(=O)O[C@H]2[C@@H]3[C@]4(OC(C)=O)CO[C@@H]4C[C@H](O)[C@@]3(C)C(=O)[C@H](OC(C)=O)C3=C(C)[C@@H](OC(=O)[C@H](O)[C@@H](NC(=O)OC(C)(C)C)c4ccco4)C[C@]2(O)C3(C)C)c1 | 0.00522 µM (active) | 0.173 µM (active) | < 0.00375 µM (active) | < 0.00375 µM | < 0.00375 µM (active) | < 0.00375 µM (active) | < 0.00375 µM (active) | < 0.00375 µM (active) | < 0.00375 µM (active) | < 0.00375 µM (active) | < 0.00375 µM (active) | 0.0107 µM (active) | < 0.00375 µM (active) | 6.32 µM (inactive) | < 0.00375 µM (active) | < 0.00375 µM (active) | 0.133 µM (active) | < 0.00375 µM (active) | 0.0442 µM (active)
2 | COC(=O)C1=C(O)C(C(=O)OC)[C@]2(O)[C@H](C(=O)OC)[C@H]1C[C@@H](c1ccc(Cl)cc1)[C@H]2C(=O)OC (stereo not given in full) | 6.41 µM (inactive) | 10.9 µM (inactive) | 6.79 µM (inactive) | 4.59 µM | 1.75 µM (inactive) | 12 µM (inactive) | 4.07 µM (inactive) | 3.67 µM (inactive) | 3.78 µM (inactive) | 3.64 µM (inactive) | 5.45 µM (inactive) | 3.29 µM (inactive) | 2.94 µM (inactive) | 11.1 µM (inactive) | 4.06 µM (inactive) | 2.7 µM (inactive) | 5.5 µM (inactive) | 4.17 µM (inactive) | 7.69 µM (inactive)
3 | COc1cc2c(cc1O)[C@@H]1Cc3c(cc(OC)c(OC)c3Oc3cc4c(cc3OC)CCN(C)[C@@H]4Cc3ccc(O)cc3)[C@H](C2)N1C | 36.6 µM (inactive) | > 100 µM (inactive) | 31 µM (inactive) | > 78.9 µM | 17.7 µM (inactive) | 35.4 µM (inactive) | 55.5 µM (inactive) | 20.6 µM (inactive) | 19 µM (inactive) | 31 µM (inactive) | 53.7 µM (inactive) | > 100 µM (inactive) | > 100 µM (inactive) | 33 µM (inactive) | 27.9 µM (inactive) | > 94 µM (inactive) | > 100 µM (inactive) | 13 µM (inactive) | > 55.8 µM (inactive)
4 | COc1cc(C2C3=C(COC3=O)OC(C)(C)Oc3cc4c(cc32)OCO4)cc(OC)c1O (stereo not given) | 1.12 µM (active) | 4.12 µM (inactive) | 2.27 µM (inactive) | 0.873 µM | 0.291 µM (active) | 2.19 µM (inactive) | 0.364 µM (active) | 0.217 µM (active) | 0.199 µM (active) | 3.11 µM (inactive) | 0.643 µM (active) | 0.39 µM (active) | 0.437 µM (active) | > 38.8 µM (inactive) | 1.62 µM (inactive) | 0.757 µM (active) | 1.33 µM (inactive) | 1.01 µM (active) | 3.27 µM (inactive)
5 | CN(c1ccccc1Cl)S(=O)(=O)c1ccccc1[N+](=O)[O-] | 58.9 µM (inactive) | 39.2 µM (inactive) | 34.7 µM (inactive) | 48.9 µM | 24 µM (inactive) | 34.3 µM (inactive) | > 10 µM (inactive) | 28.7 µM (inactive) | 33.9 µM (inactive) | 25.7 µM (inactive) | 33.9 µM (inactive) | 27.9 µM (inactive) | 37.8 µM (inactive) | > 100 µM (inactive) | 24.8 µM (inactive) | 51.5 µM (inactive) | 46.9 µM (inactive) | 35.5 µM (inactive) | 27.1 µM (inactive)
